From PubChem BioAssay AID179 (DTP/NCI, 2004)
Active and inactive are the calls of the source.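 How the source made its calls: active means compounds giving half or more protection of infected cells from virus-caused growth loss, again on retest; inactive means the rest.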

Test system: CEM cells HIV-1 protection, formazan growth assay
Assay: NCI AIDS Antiviral Assay
Conditions: for IC50: measured here: growth of uninfected CEM cells
In short: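 Human CEM cells, uninfected and HIV-1-infected, received five drug concentrations, and growth was read by soluble formazan assay. Compounds giving at least 50% protection were retested; reproducible 100% protection defined confirmed active.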

SMILES | EC50 [µM] | IC50 [µM] | outcome
O=C(Nc1nc2ccc(Cl)cc2[nH]1)c1ccccc1O | > 200 | 12 | 
OC(c1ccccc1)c1ccc(C(O)c2ccccc2)cc1 (stereo not drawn) | > 123 | > 123 | 
O=C(NCCCNCCN1C(=O)c2cccc3cc([N+](=O)[O-])cc(c23)C1=O)c1cc(-c2ccccc2)nc2ccccc12 | > 200 | 1.05 | 
O=C(O)Cc1ccc(N2N=C(c3ccccc3)CC2=O)cc1 | > 200 | > 200 | 
c1ccc(C2=NNc3cccc[n+]3C2)cc1 | > 871 | 447 | 
Cc1nc2c3c(ccc2[nH]c1=O)C(=O)c1ccccc1C3=O |  |  | inactive
Clc1ccccc1/C=C1\c2ccccc2-c2nc3ccccc3nc21 | > 200 | > 200 | 
NC1c2c(Cl)sc(Cl)c2C(=O)C1O (stereo not drawn) | > 200 | 35.5 | 
COc1cc2[nH]c3c(c2cc1OC)CCN[C@]31CC[C@]2(CC3c4c(cc(OC)c(O)c42)CCN3C)C[C@H]1OC (stereo partly drawn) |  |  | inactive
O=[N+]([O-])c1ccc2nc3n(c2c1)C(c1c(F)cccc1F)SC3 (stereo not drawn) | > 200 | > 200 | 
OC1C#CCSCC#C/C=C\1 (stereo not drawn) | > 200 | 10.5 | 
N=c1oc2ccccc2cc1-c1nc2ccccc2[nH]1 |  |  | inactive
CCN(CC)C(=O)c1c(N2CCOCC2)cc(N(CC)CC)oc1=O | > 708 | > 708 | 
C[C@H]1[C@H](N2CCCC2)O[Si](C(C)(C)C)(C(C)(C)C)[C@@H]1C | > 200 | > 200 | 
COc1ccc2oc(=O)c(-c3csc(C)n3)cc2c1 | > 151 | 138 | 
O=C(/C=C/c1ccc2c(c1)OCO2)NCc1ccco1 | > 200 | 117 | 
COc1ccccc1/C=C1\N=C(C)OC1=O |  |  | inactive
C[N+](C)(C)CC1CCc2ccccc2C1=O (stereo not drawn) | > 724 | 1.32 | 
CC(C)(C)c1cc(C2COC(=O)COCCOCC(=O)OCCOCCO2)cc(C(C)(C)C)c1O (stereo not drawn) | > 200 | 178 | 

SMILES | EC50 [µM] | IC50 [µM] | outcome
O=C(Nc1cccc(-c2nc3ccccc3[nH]2)c1)c1ccc(C(=O)Nc2cccc(-c3nc4ccccc4[nH]3)c2)cc1 | > 200 | 91.2 | 
CCOC(=O)C(=O)/C(=C/N1C(=O)CC(=O)NC1=S)C(=O)OCC | > 200 | > 200 | 
CN1CCN(c2ncc3c(n2)sc2c(=O)n(-c4ccccc4)cnc23)CC1 | > 200 | > 200 | 
S=c1sc2ccccc2n1CCSSCCn1c(=S)sc2ccccc21 | > 200 | 191 | 
O=C(NNc1nc(Cl)nc(Cl)n1)c1ccccc1 | > 200 | > 200 | 
Fc1ccccc1C1SCc2nc3ccccc3n21 (stereo not drawn) | 11 | 38.9 | 
S=c1[nH]nc(COc2ccc(Cl)cc2)o1 | > 204 | > 204 | 
O=[N+]([O-])c1nccn1CC(O)CO (stereo not drawn) | > 661 | > 661 | 
CCN(CC)CCOC(=O)C(c1ccccc1)c1ccccc1 | > 200 | > 200 | 
CC1(C)OC2C(=O)OC(COCc3ccccc3)C2O1 (stereo not drawn) | > 36.3 | > 36.3 | 
CC1=CC2Cc3ccoc3C(C)(C)C2CC1 (stereo not drawn) |  |  | inactive
COc1cc(/C=C2/C(=O)N(C(=O)c3ccccc3O)N=C2C)cc(OC)c1OC | > 47.9 | 0.24 | 
COc1ccc(N=Nc2c(N)nn(C)c2N)cc1 |  |  | inactive
CSc1nc(C)c2c(n1)SCC2 | > 200 | > 200 | 
Nc1nn2cnnc2s1 |  |  | inactive
CC(=O)c1c(O)cc(O)cc1-c1cc(=O)c2c(O)ccc(C(C)=O)c2o1 | > 200 | 170 | 
Nc1ccc2c(O)c(N=Nc3ccc(N=Nc4ccc(S(=O)(=O)O)cc4)cc3)c(S(=O)(=O)O)cc2c1N=Nc1ccc(N=Nc2ccc(S(=O)(=O)O)cc2)cc1 |  |  | active
Cc1ccc(Nc2ccc3c4c(cc(=O)n3C)-c3ccccc3C(=O)c24)c(S(=O)(=O)O)c1 | > 174 | > 174 | 
O=C(NNC(=S)Nc1ccc(Cl)cc1)C12CC3CC(CC(C3)C1)C2 | > 200 | 6.61 | 
